Consider 52 sequences from the supplement of paper PMC11208160.

The data set is described as follows: recombinant UMI read abundance after kanamycin selection (control-corrected) (log10(CPM+1)); higher = more efficient recombination; extreme values may be limits of the assay; sequences stand for … in AGTGCAGAGAAAATCGGCCAGTTTTCTCTGCCTGCAGTCCGCATGCCGTGGGACCCCTTGGGTTCTAACCTGTTGCCTAGATTTATGCAGCGGACTGCCTTTCTCCCAAAGTGATAAACCGG…AGGTTGGTTTCACT; site = the 11-nt donor. The method in brief:
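Each donor and donor-binding-loop pair was tracked by a 12-nt UMI on a plasmid carrying a promoterless kanamycin gene. With a second plasmid supplying a fixed target and T7-inducible IS621 bridge recombinase, the pool was plated in Escherichia coli on IPTG (0.07 mM) plus kanamycin or unselected. Sequencing of recombinant UMIs across the donor–target junction gave counts expressed as log10(CPM+1) after replicate averaging and control-derived scaling.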
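Further: IS621 bridge recombinase in Escherichia coli cells against a fixed T5 target plasmid.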

As to “CACTCCTCATGGACCGGTTTTCCCGGTAATCCGTATTTGAC (site CACTCCTCTGA)”, the “recombinant UMI read abundance (log10)” value came out at 2.16.

As for “CACTCCTCATGGACCGGTTTTCCCGGTAATCCGTATTTGAC (site CACTCCTCTGC)”, the “recombinant UMI read abundance (log10)” value amounted to 1.9.

For the sequence “CACTCCTCATGGACCGGTTTTCCCGGTAATCCGTATTTGAC (site CACTCCTCTGG)”, the “recombinant UMI read abundance (log10)” value worked out at 1.55.

In the case of “CACTCCTCATGGACCGGTTTTCCCGGTAATCCGTATTTGAC (site CACTCCTCTGT)”, the “recombinant UMI read abundance (log10)” value came out at 3.09.

For “CACTCGACATGGACCGGTTTTCCCGGTAATCCGTATTTGGG (site CAATCGACTCC)”, the “recombinant UMI read abundance (log10)” value worked out at 0.0326.

As to “CACTCGACATGGACCGGTTTTCCCGGTAATCCGTATTTGGG (site CACTCGACTCC)”, the “recombinant UMI read abundance (log10)” value was determined as 0.2.

Regarding “CACTCGACATGGACCGGTTTTCCCGGTAATCCGTATTTGGG (site CAGTCGACTCC)”, the “recombinant UMI read abundance (log10)” value came to 0.

Take “CACTCGACATGGACCGGTTTTCCCGGTAATCCGTATTTGGG (site CATTCGACTCC)”: the “recombinant UMI read abundance (log10)” value turned out to be 0.0164.

“CACTGCCCATGGACCGGTTTTCCCGGTAATCCGTATTTGTT (site CACAGCCCTAA)”: the “recombinant UMI read abundance (log10)” value was 0.0209.

As to “CACTGCCCATGGACCGGTTTTCCCGGTAATCCGTATTTGTT (site CACCGCCCTAA)”, the “recombinant UMI read abundance (log10)” value is 0.287.

Regarding “CACTGCCCATGGACCGGTTTTCCCGGTAATCCGTATTTGTT (site CACGGCCCTAA)”, the “recombinant UMI read abundance (log10)” value came out at 0.0106.

Turning to “CACTGCCCATGGACCGGTTTTCCCGGTAATCCGTATTTGTT (site CACTGCCCTAA)”, the “recombinant UMI read abundance (log10)” value came out at 0.276.

In the case of “CACTGCTCATGGACCGGTTTTCCCGGTAATCCGTATTTGAA (site CAATGCTCTTT)”, the “recombinant UMI read abundance (log10)” value was determined as 0.0153.

In the case of “CACTGCTCATGGACCGGTTTTCCCGGTAATCCGTATTTGAA (site CACTGCTCTTT)”, the “recombinant UMI read abundance (log10)” value was 2.09.

Regarding “CACTGCTCATGGACCGGTTTTCCCGGTAATCCGTATTTGAA (site CAGTGCTCTTT)”, the “recombinant UMI read abundance (log10)” value stood at 0.00554.

For the sequence “CACTGCTCATGGACCGGTTTTCCCGGTAATCCGTATTTGAA (site CATTGCTCTTT)”, the “recombinant UMI read abundance (log10)” value was found to be 0.0128.

Regarding “CACTGGACATGGACCGGTTTTCCCGGTAATCCGTATTTGGT (site CACTGGACTAC)”, the “recombinant UMI read abundance (log10)” value turned out to be 1.24.

“CAGAAAACATGGACCGGTTTTCCCGGTAATCCGTATTTGGG (site CAGAAAACTCC)”: the “recombinant UMI read abundance (log10)” value worked out at 0.991.

With “CAGACATCATGGACCGGTTTTCCCGGTAATCCGTATTTGCT (site CAGACATCTAG)”, the “recombinant UMI read abundance (log10)” value came to 2.46.

As to “CAGACATCATGGACCGGTTTTCCCGGTAATCCGTATTTGCT (site CCGACATCTAG)”, the “recombinant UMI read abundance (log10)” value was 1.06.

For the sequence “CAGACATCATGGACCGGTTTTCCCGGTAATCCGTATTTGCT (site CGGACATCTAG)”, the “recombinant UMI read abundance (log10)” value is 1.16.

“CAGACATCATGGACCGGTTTTCCCGGTAATCCGTATTTGCT (site CTGACATCTAG)”: the “recombinant UMI read abundance (log10)” value is 1.42.

As to “CAGACCGCATGGACCGGTTTTCCCGGTAATCCGTATTTGAT (site CAGACCGCTAT)”, the “recombinant UMI read abundance (log10)” value stood at 2.7.

Consider “CAGACGCCATGGACCGGTTTTCCCGGTAATCCGTATTTGAC (site CAGACGCCTGT)”, for which the “recombinant UMI read abundance (log10)” value is 1.91.

Regarding “CAGACGGCATGGACCGGTTTTCCCGGTAATCCGTATTTGGG (site CAGACGGCTCC)”, the “recombinant UMI read abundance (log10)” value turned out to be 0.191.

For the sequence “CAGAGAGCATGGACCGGTTTTCCCGGTAATCCGTATTTGTA (site CAGAGAGCTTA)”, the “recombinant UMI read abundance (log10)” value turned out to be 2.94.

Regarding “CAGCACGCATGGACCGGTTTTCCCGGTAATCCGTATTTGGT (site CAGCACGCTAC)”, the “recombinant UMI read abundance (log10)” value was found to be 1.61.

For the sequence “CAGCCCACATGGACCGGTTTTCCCGGTAATCCGTATTTGAA (site CAGCCCACTTT)”, the “recombinant UMI read abundance (log10)” value was 1.15.

In the case of “CAGCTATCATGGACCGGTTTTCCCGGTAATCCGTATTTGTC (site CAGCTATCTGA)”, the “recombinant UMI read abundance (log10)” value stood at 3.3.

Take “CAGGAGTCATGGACCGGTTTTCCCGGTAATCCGTATTTGCC (site CAGGAGTCTGG)”: the “recombinant UMI read abundance (log10)” value was determined as 3.4.

On to “CAGGAGTCATGGACCGGTTTTCCCGGTAATCCGTATTTGCC (site CCGGAGTCTGG)”, for which the “recombinant UMI read abundance (log10)” value was 0.

Regarding “CAGGAGTCATGGACCGGTTTTCCCGGTAATCCGTATTTGCC (site CGGGAGTCTGG)”, the “recombinant UMI read abundance (log10)” value was determined as 0.

In the case of “CAGGAGTCATGGACCGGTTTTCCCGGTAATCCGTATTTGCC (site CTGGAGTCTGG)”, the “recombinant UMI read abundance (log10)” value came to 1.73.

Turning to “CAGGCAGCATGGACCGGTTTTCCCGGTAATCCGTATTTGCT (site CAAGCAGCTAG)”, the “recombinant UMI read abundance (log10)” value was 1.66.

As to “CAGGCAGCATGGACCGGTTTTCCCGGTAATCCGTATTTGCT (site CACGCAGCTAG)”, the “recombinant UMI read abundance (log10)” value was 0.

“CAGGCAGCATGGACCGGTTTTCCCGGTAATCCGTATTTGCT (site CAGGCAGCTAG)”: the “recombinant UMI read abundance (log10)” value worked out at 1.92.

With “CAGGCAGCATGGACCGGTTTTCCCGGTAATCCGTATTTGCT (site CATGCAGCTAG)”, the “recombinant UMI read abundance (log10)” value came to 0.

Consider “CAGGCGACATGGACCGGTTTTCCCGGTAATCCGTATTTGGG (site CAGACGACTCC)”, for which the “recombinant UMI read abundance (log10)” value turned out to be 0.0355.

Consider “CAGGCGACATGGACCGGTTTTCCCGGTAATCCGTATTTGGG (site CAGCCGACTCC)”, for which the “recombinant UMI read abundance (log10)” value was determined as 0.0323.

As to “CAGGCGACATGGACCGGTTTTCCCGGTAATCCGTATTTGGG (site CAGGCGACTCC)”, the “recombinant UMI read abundance (log10)” value came out at 0.209.

For the sequence “CAGGCGACATGGACCGGTTTTCCCGGTAATCCGTATTTGGG (site CAGTCGACTCC)”, the “recombinant UMI read abundance (log10)” value was determined as 0.0086.

For “CAGGGCACATGGACCGGTTTTCCCGGTAATCCGTATTTGGA (site CAGGGCACTTC)”, the “recombinant UMI read abundance (log10)” value was 0.471.

On to “CAGGTCGCATGGACCGGTTTTCCCGGTAATCCGTATTTGAT (site CAGGTCGCTAT)”, for which the “recombinant UMI read abundance (log10)” value came to 2.33.

On to “CAGTCAACATGGACCGGTTTTCCCGGTAATCCGTATTTGGG (site CAGTCAACTCC)”, for which the “recombinant UMI read abundance (log10)” value was determined as 0.146.

For the sequence “CAGTCAACATGGACCGGTTTTCCCGGTAATCCGTATTTGGG (site CAGTCCACTCC)”, the “recombinant UMI read abundance (log10)” value is 0.018.

As for “CAGTCAACATGGACCGGTTTTCCCGGTAATCCGTATTTGGG (site CAGTCGACTCC)”, the “recombinant UMI read abundance (log10)” value amounted to 0.0226.

On to “CAGTCAACATGGACCGGTTTTCCCGGTAATCCGTATTTGGG (site CAGTCTACTCC)”, for which the “recombinant UMI read abundance (log10)” value is 0.0255.

For “CAGTCGACATGGACCGGTTTTCCCGGTAATCCGTATTTGGT (site CAGTCGACTAC)”, the “recombinant UMI read abundance (log10)” value is 1.13.

In the case of “CAGTCGACATGGACCGGTTTTCCCGGTAATCCGTATTTGGT (site CAGTCGACTCC)”, the “recombinant UMI read abundance (log10)” value came to 0.0077.

As for “CAGTCGACATGGACCGGTTTTCCCGGTAATCCGTATTTGGT (site CAGTCGACTGC)”, the “recombinant UMI read abundance (log10)” value stood at 1.41.

In the case of “CAGTCGACATGGACCGGTTTTCCCGGTAATCCGTATTTGGT (site CAGTCGACTTC)”, the “recombinant UMI read abundance (log10)” value was 0.56.

Turning to “CAGTGCTCATGGACCGGTTTTCCCGGTAATCCGTATTTGGT (site CAGTGCTCTAC)”, the “recombinant UMI read abundance (log10)” value turned out to be 2.49.
